Broadly, the EC50 is the concentration needed to bring the measured effect to its halfway point. By AUC is commonly meant the area under the concentration-time curve, a measure of exposure. What is called clearance is a measure of how efficiently the substance is removed, as volume per time. A word on the Cmax: it is the highest concentration seen after dosing. One may read the bioavailability as dose-corrected exposure relative to a reference, in per cent. Usually Kp stands for tissue or fluid exposure divided by exposure in the circulation. The term inhibition in vivo denotes the drop in the measured response relative to a control, in per cent.

Experimental findings from ChEMBL document CHEMBL3400149, “Discovery of novel spiro 1,3,4-thiadiazolines as potent, orally bioavailable and brain penetrant KSP inhibitors” (Bioorg Med Chem, 2015) are described below.

For data set [1], the target named is T1, Kinesin-like protein KIF11 (Homo sapiens, UniProt P52732).
T1 sequence (P52732 whole entry): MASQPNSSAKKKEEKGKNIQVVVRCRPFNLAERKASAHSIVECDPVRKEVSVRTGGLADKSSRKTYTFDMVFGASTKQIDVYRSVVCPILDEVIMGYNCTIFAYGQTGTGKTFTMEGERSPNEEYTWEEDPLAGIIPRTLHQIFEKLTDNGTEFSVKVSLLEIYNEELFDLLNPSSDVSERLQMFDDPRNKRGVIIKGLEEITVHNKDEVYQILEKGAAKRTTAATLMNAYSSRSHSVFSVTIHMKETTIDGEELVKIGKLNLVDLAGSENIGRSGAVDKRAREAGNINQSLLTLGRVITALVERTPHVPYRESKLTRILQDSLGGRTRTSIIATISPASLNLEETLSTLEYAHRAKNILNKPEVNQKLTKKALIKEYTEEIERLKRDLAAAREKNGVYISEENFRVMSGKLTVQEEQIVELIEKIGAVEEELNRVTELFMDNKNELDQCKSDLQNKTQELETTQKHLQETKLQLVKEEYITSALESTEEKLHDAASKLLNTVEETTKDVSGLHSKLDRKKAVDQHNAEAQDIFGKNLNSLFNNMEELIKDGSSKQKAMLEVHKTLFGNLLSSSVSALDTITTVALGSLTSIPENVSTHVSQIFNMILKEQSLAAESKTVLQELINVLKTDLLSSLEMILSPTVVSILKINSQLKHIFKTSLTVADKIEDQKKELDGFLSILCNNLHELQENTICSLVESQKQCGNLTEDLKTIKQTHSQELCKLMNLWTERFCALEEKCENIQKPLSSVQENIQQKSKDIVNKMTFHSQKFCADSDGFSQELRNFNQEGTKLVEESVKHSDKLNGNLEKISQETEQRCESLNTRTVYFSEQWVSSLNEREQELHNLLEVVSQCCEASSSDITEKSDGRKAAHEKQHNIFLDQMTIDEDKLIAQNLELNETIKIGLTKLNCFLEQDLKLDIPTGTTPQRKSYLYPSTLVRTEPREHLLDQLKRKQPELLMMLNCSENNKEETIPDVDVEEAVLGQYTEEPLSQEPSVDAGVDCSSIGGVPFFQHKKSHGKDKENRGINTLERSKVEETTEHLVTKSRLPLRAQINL
In words: Inhibition of KSP in human HCT116 cells assessed as phos-histone H3 level by immunofluorescent assay. The class given is cell-based, HCT-116.

The nature of data set [2]: AUC in CD1 mouse at 5 mg/kg, iv. Particulars: plasma. It is filed as ADME, organism-based. Details: dose 5 mg/kg, route intravenous.
Data set [3] can be described thus: AUC in Sprague-Dawley rat at 1 mg/kg, iv. Particulars: plasma. On the set-up: dose 1 mg/kg, route intravenous. The class given is ADME, organism-based.
The nature of data set [4]: AUC in beagle dog at 1 mg/kg, iv. The class given is ADME, organism-based, Canis lupus familiaris. Details: dose 1 mg/kg, route intravenous. Particulars: plasma.
Data set [5] in a line: Clearance in CD1 mouse at 5 mg/kg, iv. It is filed as ADME, organism-based. On the set-up: dose 5 mg/kg, route intravenous. Particulars: in vivo.
Data set [6] can be described thus: Clearance in Sprague-Dawley rat at 1 mg/kg, iv. The class given is ADME, organism-based. On the set-up: dose 1 mg/kg, route intravenous. As to conditions: in vivo.
A short description of data set [7]: Clearance in beagle dog at 1 mg/kg, iv. It is filed as ADME, organism-based, Canis lupus familiaris. On the set-up: dose 1 mg/kg, route intravenous. Particulars: in vivo.
A short description of data set [8]: AUC in CD1 mouse at 10 mg/kg, po. It is filed as ADME, organism-based. On the set-up: dose 10 mg/kg, route oral. Particulars: plasma.
Data set [9] is described as follows: Cmax in CD1 mouse at 10 mg/kg, po. It is filed as ADME, organism-based. Details: dose 10 mg/kg, route oral. Particulars: in vivo.
Data set [10] is described as follows: Oral bioavailability in CD1 mouse at 10 mg/kg. As to conditions: in vivo. It is filed as ADME, organism-based.
Data set [11] in a line: AUC in Sprague-Dawley rat at 10 mg/kg, po. As to conditions: plasma. The class given is ADME, organism-based. Details: dose 10 mg/kg, route oral.
Data set [12] in a line: Cmax in Sprague-Dawley rat at 10 mg/kg, po. It is filed as ADME, organism-based. On the set-up: dose 10 mg/kg, route oral. As to conditions: in vivo.
Data set [13] in a line: Oral bioavailability in Sprague-Dawley rat at 10 mg/kg. It is filed as ADME, organism-based. As to conditions: in vivo.
Data set [14] can be described thus: AUC in beagle dog at 10 mg/kg, po. The class given is ADME, organism-based, Canis lupus familiaris. On the set-up: dose 10 mg/kg, route oral. As to conditions: plasma.
Data set [15] in a line: Cmax in beagle dog at 10 mg/kg, po. It is filed as ADME, organism-based, Canis lupus familiaris. Details: dose 10 mg/kg, route oral. Particulars: in vivo.
Data set [16] in a line: Oral bioavailability in beagle dog at 10 mg/kg. It is filed as ADME, organism-based, Canis lupus familiaris. As to conditions: in vivo.
The nature of data set [17]: Permeability across apical to basolateral side in human Caco2 cells. It is filed as ADME, cell-based. Particulars: Caco-2, read-out: permeability. On the technique in general: Passage across Caco-2 layers is used to estimate intestinal permeability.
Data set [18] is described as follows: Permeability across basolateral to apical side in human Caco2 cells. As to conditions: Caco-2, read-out: permeability. The class given is ADME, cell-based.
A short description of data set [19]: AUC ratio of drug uptake from brain to plasma in mouse. It is filed as ADME, organism-based.
Data set [20] is described as follows: AUC ratio of drug uptake from brain to plasma in rat. The class given is ADME.
The nature of data set [21]: Antitumor activity against human COLO205 cells xenografted in mouse assessed as tumor growth inhibition at 5 mg/kg, po q3d measured on day 35. The class given is functional. Particulars: COLO 205, 840 h. For orientation: A xenograft is tissue or cells of one species grown in another, often human tumour cells in immunodeficient mice.
Data set [22] is described as follows: Antitumor activity against human COLO205 cells xenografted in mouse assessed as tumor growth inhibition at 7.5 mg/kg, po q3d measured on day 35. As to conditions: COLO 205, 840 h. It is filed as functional.
The nature of data set [23]: Antitumor activity against human U373 cells xenografted in mouse assessed as tumor growth inhibition at 5 mg/kg, po q3d measured on day 35. Particulars: 840 h. The class given is functional, U-373MG ATCC.
Data set [24] in a line: Antitumor activity against human U373 cells xenografted in mouse assessed as tumor growth inhibition at 7.5 mg/kg, po q3d measured on day 35. The class given is functional, U-373MG ATCC. Particulars: 840 h.
Data set [25] can be described thus: Oral bioavailability in monkey. The class given is ADME, organism-based, Macaca mulatta. Particulars: rhesus monkey, in vivo.
Data set [26] is described as follows: Retention time of the compound. The class given is physicochemical.

On to `CCC(=O)N1N=C(c2cc(F)ccc2F)SC12CCOc1ccccc12` (centres undefined), for which, in data set [1], the half-maximal effective concentration (EC50) is 452 nM.
For the compound `CC(=O)N1N=C(c2cc(F)ccc2F)S[C@@]12c1cc(F)c(F)cc1OC[C@H]2CCN`, in data set [1], the concentration for a half-maximal effect (EC50) was found to be 3 nM. Further, the exposure (AUC) in [2] worked out at 4.6 µM·h; in [3] it was 0.8 µM·h; in data set [4], 3.1 µM·h; in data set [8] it was 7.9 µM·h; in [11], 2.5 µM·h; in [14] it was 6.9 µM·h. Further, the results for the clearance in [5], in data set [6] and in [7] were 42 mL/min/kg, 49 mL/min/kg and 12 mL/min/kg, respectively. Moreover, the highest concentration (Cmax) amounted to 1030 nM in data set [9], 220 nM in data set [12] and 500 nM in [15]. In addition, the bioavailability in [10] came to 87%; in [13], 64%; in data set [16] it was 44%; in data set [25], 53%. Also, in data set [17], the Papp A→B was 10.6 ×10⁻⁶ cm/s. For the same compound, in data set [18], the Papp B→A turned out to be 11.5 ×10⁻⁶ cm/s. Further, the Kp in [19] and in data set [20] was 4 in each case. Also, the inhibition in vivo at 5 mg/kg in [21] was 116%; in data set [23], 31%. Besides, the inhibition in vivo at 7.5 mg/kg in data set [22] was found to be 126%; in [24] it was 69%.
`CC(=O)N1CCC2(SC(c3cc(F)ccc3F)=NN2C(C)=O)c2ccccc21` (centres undefined): the EC50 in data set [1] was over 1000 nM.
For the compound `CNCCCC(=O)N1N=C(c2cc(F)ccc2F)SC12CCOc1ccccc12` (centres undefined), in data set [1], the EC50 amounted to 367 nM.
As for `CC(=O)N1N=C(c2cc(F)ccc2F)SC12COc1ccccc12` (centres undefined), the EC50 in data set [1] came out at 246 nM.
Consider `CC(=O)N1N=C(c2cc(F)ccc2F)SC12CCSc1ccccc12` (centres undefined), for which, in data set [1], the EC50 amounted to 3310 nM.
Still for that read-out and setting: the value for `O=C(CO)N1N=C(c2cc(F)ccc2F)SC12CCOc1ccccc12` (centres undefined) was 615 nM.
`CC(=O)N1N=C(c2cc(F)ccc2F)S[C@@]12c1cc(F)ccc1OC[C@H]2CCN`: the EC50 in [1] is 1 nM. For the same compound, the AUC in data set [2] is 2.6 µM·h; in data set [3], 0.37 µM·h; in [8] it was 3.3 µM·h; in data set [11], 0.15 µM·h. Moreover, the results for the clearance in [5] and in data set [6] were 76 mL/min/kg and 109 mL/min/kg, respectively. In addition, the Cmax in [9] was determined as 770 nM; in data set [12], 17 nM. In addition, the results for the bioavailability in data set [10] and in [13] were 64% and 8%, respectively.
As for `CC(=O)N1N=C(c2cc(F)ccc2F)SC12c1ccccc1OCC2CCN` (racemic), the concentration for a half-maximal effect (EC50) in [1] is 5 nM.
Consider `CC(C)(C)C(=O)N1N=C(c2cc(F)ccc2F)SC12CCOc1ccccc12` (centres undefined), for which the concentration for a half-maximal effect (EC50) in data set [1] was over 1000 nM.
Take `CC(=O)N1N=C(c2cc(F)ccc2F)S[C@]12c1ccccc1OC[C@@H]2CCN`: the EC50 in data set [1] is over 1000 nM. In addition, the Retention_time in data set [26] was determined as 2.33 min.
For `CC(=O)N1N=C(c2cc(F)ccc2F)SC12CCOc1ccccc12` (centres undefined), the concentration for a half-maximal effect (EC50) in [1] turned out to be 139 nM.
`CN(C)CCCC(=O)N1N=C(c2cc(F)ccc2F)SC12CCOc1ccccc12` (centres undefined): the concentration giving a half-maximal response (EC50) in data set [1] was 263 nM.
In the case of `CC(=O)N1N=C(c2cc(F)ccc2F)SC12CCN(C)c1ccccc12` (centres undefined), in data set [1], the EC50 is over 1000 nM.
